Key:
[1] = molecular target: T1, SphK1 (Homo sapiens, UniProt Q9NYA1); assay: Malachite green-based ATPase enzyme inhibition assay; assay type: biochemical
[2] = system: A549 cells; assay: MTT cell viability assay, A549; assay type: cell-based; conditions: Homo sapiens, A549, 48 h, read-out: IC50, cell viability (MTT)
[3] = molecular target: T1, SphK1; assay: Isothermal titration calorimetry of harmaline with SphK1; assay type: binding
[4] = system: caspase-3 activity in H1299 cells; assay: Caspase-3 colorimetric assay, H1299; assay type: cell-based, human; conditions: 50 and 100 μM, 24 h, compared to untreated cells
[5] = system: caspase-3 activity in A549 cells; assay: Caspase-3 colorimetric assay, A549; assay type: cell-based, human; conditions: 50 and 100 μM, 24 h, compared to untreated cells
[6] = system: HEK293; conditions: read-out: IC50 against HEK293; after 72 h of treatment; ref Storch et al. 94; cited from earlier work
[7] = system: H1299 cells; assay: MTT cell viability assay, H1299; assay type: cell-based; conditions: Homo sapiens, NCI-H1299, 48 h, read-out: IC50, cell viability (MTT)

T1 sequence (Q9NYA1 whole entry): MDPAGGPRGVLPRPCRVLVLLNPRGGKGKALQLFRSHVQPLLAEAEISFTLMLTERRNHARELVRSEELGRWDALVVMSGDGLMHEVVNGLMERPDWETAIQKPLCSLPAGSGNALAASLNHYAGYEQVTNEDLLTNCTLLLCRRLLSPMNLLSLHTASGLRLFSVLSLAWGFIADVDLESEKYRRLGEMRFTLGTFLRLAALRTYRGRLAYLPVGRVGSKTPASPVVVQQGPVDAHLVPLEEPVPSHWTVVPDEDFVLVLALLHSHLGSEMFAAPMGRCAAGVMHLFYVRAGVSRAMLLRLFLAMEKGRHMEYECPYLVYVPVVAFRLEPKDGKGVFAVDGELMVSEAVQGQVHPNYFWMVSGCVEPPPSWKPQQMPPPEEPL

For `COc1ccc2c3c([nH]c2c1)C(C)=NCC3` [harmaline], the IC50 ([1]; IC50, SphK1 ATPase activity, harmaline 0 to 30 μM, three independent experiments) was 6.13 µM, the “hill slope of SphK1 inhibition curve” value ([1]; three-parameter Hill fit) was 0.57 and the IC50 [2] was 67.9 ± 2.91 µM. The “association constant Ka1” value ([3]; ITC, site 1) was “Ka1 = 1.89 × 10^4 ± 1.3 × 10^3 M^–1”, the “enthalpy change ΔH1” value ([3]; ITC, site 1) was “ΔH1 = −3205 ± 197 cal/mol” and the “ΔG1 (free energy change)” value ([3]; ITC, site 1) was “ΔG1 = −5.83 kcal/mol”. For the same compound, the ΔS1 ([3]; ITC, site 1) was “ΔS1 = 8.82 cal/mol/deg”, the “association constant Ka2” value ([3]; ITC, site 2) was “Ka2 = 1.49 × 10^5 ± 8.6 × 10^3 M^–1” and the “enthalpy change ΔH2” value ([3]; ITC, site 2) was “ΔH2 = 1895 ± 257 cal/mol”. The “ΔG2 (free energy change)” value ([3]; ITC, site 2) was “ΔG2 = −7.04 kcal/mol”, the ΔS2 ([3]; ITC, site 2) was “ΔS2 = 30.0 cal/mol/deg” and the “association constant Ka3” value ([3]; ITC, site 3) was “Ka3 = 3.50 × 10^4 ± 2.0 × 10^3 M^–1”. For the same compound, the “enthalpy change ΔH3” value ([3]; ITC, site 3) was “ΔH3 = 272.3 ± 190 cal/mol”, the “ΔG3 (free energy change)” value ([3]; ITC, site 3) was “ΔG3 = −5.99 kcal/mol” and the ΔS3 ([3]; ITC, site 3) was “ΔS3 = 21.7 cal/mol/deg”. The “association constant Ka4” value ([3]; ITC, site 4) was “Ka4 = 4.58 × 10^3 ± 2.9 × 10^2 M^–1”, the “enthalpy change ΔH4” value ([3]; ITC, site 4) was “ΔH4 = −9574 ± 467 cal/mol” and the “ΔG4 (free energy change)” value ([3]; ITC, site 4) was “ΔG4 = −4.98 kcal/mol”. For the same compound, the ΔS4 ([3]; ITC, site 4) was “ΔS4 = −15.4 cal/mol/deg”, the Kd ([3]; dissociation constant KD1, ITC, site 1) was 52.9 µM and the Kd ([3]; dissociation constant KD2, ITC, site 2) was 6.7 µM. The Kd ([3]; dissociation constant KD3, ITC, site 3) was 28.6 µM, the Kd ([3]; dissociation constant KD4, ITC, site 4) was 218 µM and the “caspase-3 activity (free pNA liberated per hour)” value [4] was “gradual increase in the caspase-3 activity”. For the same compound, the “caspase-3 activity (free pNA liberated per hour)” value [5] was “gradual increase in the caspase-3 activity”, the IC50 [6] was > 200 µM and the IC50 [7] was 48.2 ± 1.76 µM.
